# Data taken from patent publication US6376518B1, “Acyl derivatives of 4-demethylpenclomedine, use thereof and preparation thereof” (Southern Research Institute, priority 1999, dated 2002).
# Read-outs that look alike come from different tables or passages of the source.
# Legend:
# [1] = Anti-cancer activity of precursor compounds
# human MX-1 mammary tumor [2] = experiment: In vivo antitumor activity vs i.c.-implanted human MX-1 mammary tumor xenograft in athymic mice; settings: ic MX-1, Days 1-5
# [3] = test system: NCI-H82 small cell lung tumor; experiment: In vivo antitumor activity vs sc NCI-H82 xenograft; set-up: species or system human
# [4] = test system: UISO-BCA-1 human mammary tumor; experiment: In vivo antitumor activity vs sc UISO-BCA-1 xenograft; settings: IP 90 mg/kg/dose, Days 16-20
# SF-295 CNS tumor = experiment: In vivo antitumor activity vs sc SF-295 xenograft; set-up: species or system human; settings: IP 90 mg/kg/dose, Days 9-13
# [5] = test system: NCI-H460 nonsmall cell lung tumor; experiment: In vivo antitumor activity vs sc NCI-H460 xenograft; set-up: species or system human; settings: IP 90 mg/kg/dose, Days 6-10
# MCF7 human mammary tumor = experiment: In vivo antitumor activity vs sc MCF7 xenograft
# P388/CPA leukemia = experiment: Antitumor activity against IP-implanted P388/CPA leukemia in mice; format: in vivo, murine; settings: for 50-DAY SURV/TOTAL / % ILS / APPROX. NET LOG10 CHANGE IN TUMOR BURDEN AT END OF Rx / MEDIAN DAY OF DEATH: P388/CPA, Q1D × 5 (1); for MEDIAN DAY OF DEATH: dying mice only
# P388/L-PAM leukemia = settings: for MEDIAN DAY OF DEATH: dying mice only
# SK-MEL-28 melanoma = experiment: In vivo antitumor activity vs sc SK-MEL-28 xenograft; set-up: species or system human; settings: IP 90 mg/kg/dose, Days 8-12
# P388/BCNU leukemia = experiment: Antitumor activity against IP-implanted P388/BCNU leukemia in mice; settings: for MEDIAN DAY OF DEATH: dying mice only
# HT29 human colon tumor = experiment: In vivo antitumor activity vs sc HT29 xenograft
# CAKI-1 human renal tumor = experiment: In vivo antitumor activity vs sc CAKI-1 xenograft
# OVCAR-5 ovarian tumor = experiment: In vivo antitumor activity vs sc OVCAR-5 xenograft; set-up: species or system human; settings: IP 90 mg/kg/dose, Days 12-16
# [6] = test system: ZR-75-1 human mammary tumor; experiment: In vivo antitumor activity vs sc ZR-75-1 xenograft; settings: for Tumor-Free-Surv/Total: sc ZR-75-1
# U251 human CNS tumor = experiment: In vivo antitumor activity vs sc U251 xenograft
# human MX-1 mammary tumor [7] = experiment: In vivo antitumor activity vs s.c.-implanted human MX-1 mammary tumor xenograft in athymic mice; settings: sc MX-1
# [8] = sc NCI-H82, IP 60 mg/kg/dose, Days 13-17
# [9] = P388/0, IP 60.0 mg/kg/dose, Q1D × 5 (1)
# [10] = P388/0, IP 90.0 mg/kg/dose, Q1D × 5 (1)
# [11] = P388/0, IP 135.0 mg/kg/dose, Q1D × 5 (1)
# [12] = highest nontoxic doses evaluated, versus DM-PEN
# [13] = highest nontoxic doses evaluated, versus PEN
# [14] = sc MCF7, IP 60 mg/kg/dose, Days 14-18
# [15] = P388/L-PAM, IP 60.0 mg/kg/dose, Q1D × 5 (1)
# [16] = P388/L-PAM, IP 90.0 mg/kg/dose, Q1D × 5 (1)
# [17] = P388/L-PAM, IP 135.0 mg/kg/dose, Q1D × 5 (1)
# [18] = P388/BCNU, IP 60.0 mg/kg/dose, Q1D × 5 (1)
# [19] = P388/BCNU, IP 90.0 mg/kg/dose, Q1D × 5 (1)
# [20] = P388/BCNU, IP 135.0 mg/kg/dose, Q1D × 5 (1)
# [21] = sc HT29, IP 90 mg/kg/dose, Days 14-18
# [22] = sc CAKI-1, IP 90 mg/kg/dose, Days 19-23
smiles,measurement,setting,value
"CCOc1nc(C(Cl)(Cl)Cl)c(Cl)c(OCC)c1Cl [3,5-dichloro-4,6-diethoxy-2-(trichloromethyl)pyridine]",anti-cancer activity (in words),[1],active anti-cancer activity
"CCOc1c(Cl)c(OC)nc(C(Cl)(Cl)Cl)c1Cl [3,5-dichloro-4-ethoxy-6 methoxy-2-(trichloromethyl) pyridine]",anti-cancer activity (in words),[1],active anti-cancer activity
COc1nc(C(Cl)(Cl)Cl)c(Cl)c(OC(C)=O)c1Cl [DM-A-PEN],Median % ILS (dying mice only),human MX-1 mammary tumor [2]; IP 60 mg/kg/dose,+60%
same,Median % ILS (dying mice only),human MX-1 mammary tumor [2]; oral (gavage) 135 mg/kg/dose,+88%
same,activity (in words),[3]; s.c.-implanted NCI-H82 small cell lung tumor,moderate to modest activity
same,T-C,[3]; [8],7.2 days
same,Tumor-Free-Surv/Total,[3]; [8],0/5
same,50-DAY SURV/TOTAL,P388/0 leukemia; [9],0/6
same,% ILS,P388/0 leukemia; [9],+72%
same,APPROX. NET LOG10 CHANGE IN TUMOR BURDEN AT END OF Rx,P388/0 leukemia; [9],−3.1
same,MEDIAN DAY OF DEATH,"P388/0 leukemia; P388/0, IP 60.0 mg/kg/dose, Q1D × 5 (1), dying mice only",19.0
same,50-DAY SURV/TOTAL,P388/0 leukemia; [10],0/6
same,% ILS,P388/0 leukemia; [10],+95%
same,APPROX. NET LOG10 CHANGE IN TUMOR BURDEN AT END OF Rx,P388/0 leukemia; [10],−5.0
same,50-DAY SURV/TOTAL,P388/0 leukemia; [11],0/6
same,% ILS,P388/0 leukemia; [11],+159%
same,APPROX. NET LOG10 CHANGE IN TUMOR BURDEN AT END OF Rx,P388/0 leukemia; [11],~−6.8
same,Toxicity / lethality level at the dosage (LD),P388/0 leukemia; [11],LD33
same,more active than DM-PEN against P388/O (difference in log cell kill),P388/0 leukemia; [12],1.9 log cell kill
same,more active than PEN against P388/0 (difference in log cell kill),P388/0 leukemia; [13],0.4 log cell kill
same,T-C,[4],-2.4 days
same,Tumor-Free-Surv/Total,[4],0/5
same,T-C,SF-295 CNS tumor,0.7 days
same,Tumor-Free-Surv/Total,SF-295 CNS tumor,0/5
same,T-C,[5],-0.6 days
same,Tumor-Free-Surv/Total,[5],0/5
same,activity (in words),MCF7 human mammary tumor; s.c.-implanted MCF7 human mammary tumor,moderate to modest activity
same,T-C,MCF7 human mammary tumor; [14],7.1 days
same,Tumor-Free-Surv/Total,MCF7 human mammary tumor; [14],0/5
same,50-DAY SURV/TOTAL,P388/CPA leukemia; IP 60.0 mg/kg/dose,0/6
same,% ILS,P388/CPA leukemia; IP 60.0 mg/kg/dose,+54%
same,APPROX. NET LOG10 CHANGE IN TUMOR BURDEN AT END OF Rx,P388/CPA leukemia; IP 60.0 mg/kg/dose,−1.1
same,MEDIAN DAY OF DEATH,P388/CPA leukemia; IP 60.0 mg/kg/dose,17.0
same,50-DAY SURV/TOTAL,P388/CPA leukemia; IP 90.0 mg/kg/dose,0/6
same,% ILS,P388/CPA leukemia; IP 90.0 mg/kg/dose,+86%
same,APPROX. NET LOG10 CHANGE IN TUMOR BURDEN AT END OF Rx,P388/CPA leukemia; IP 90.0 mg/kg/dose,−3.1
same,50-DAY SURV/TOTAL,P388/CPA leukemia; IP 135.0 mg/kg/dose,0/6
same,APPROX. NET LOG10 CHANGE IN TUMOR BURDEN AT END OF Rx,P388/CPA leukemia; IP 135.0 mg/kg/dose,−5.7
same,MEDIAN DAY OF DEATH,P388/CPA leukemia; IP 135.0 mg/kg/dose,25.0
same,more active than DM-PEN against P388/CPA (difference in log cell kill),P388/CPA leukemia; [12],4.6 log cell kill
same,more active than PEN against P388/CPA (difference in log cell kill),P388/CPA leukemia; [13],7.4 log cell kill
same,50-DAY SURV/TOTAL,P388/L-PAM leukemia; [15],0/6
same,% ILS,P388/L-PAM leukemia; [15],+14%
same,APPROX. NET LOG10 CHANGE IN TUMOR BURDEN AT END OF Rx,P388/L-PAM leukemia; [15],+1.2
same,MEDIAN DAY OF DEATH,P388/L-PAM leukemia; [15],18.0
same,50-DAY SURV/TOTAL,P388/L-PAM leukemia; [16],0/6
same,% ILS,P388/L-PAM leukemia; [16],+14%
same,APPROX. NET LOG10 CHANGE IN TUMOR BURDEN AT END OF Rx,P388/L-PAM leukemia; [16],+1.2
same,MEDIAN DAY OF DEATH,P388/L-PAM leukemia; [16],18.0
same,50-DAY SURV/TOTAL,P388/L-PAM leukemia; [17],0/6
same,% ILS,P388/L-PAM leukemia; [17],+35%
same,APPROX. NET LOG10 CHANGE IN TUMOR BURDEN AT END OF Rx,P388/L-PAM leukemia; [17],−0.8
same,Toxicity / lethality level at the dosage (LD),P388/L-PAM leukemia; [17],LD17
same,MEDIAN DAY OF DEATH,P388/L-PAM leukemia; [17],19.0
same,more active than PEN or DM-PEN against P388/L-PAM (difference in log cell kill),"P388/L-PAM leukemia; highest nontoxic doses evaluated, versus PEN or DM-PEN",0.2-0.3 log cell kill
same,activity in the P388/L-PAM tumor model (in words),"P388/L-PAM leukemia; mouse, in vivo",none of the three showed significant activity
same,T-C,SK-MEL-28 melanoma,0.7 days
same,Tumor-Free-Surv/Total,SK-MEL-28 melanoma,0/5
same,50-DAY SURV/TOTAL,P388/BCNU leukemia; [18],1/6
same,% ILS,P388/BCNU leukemia; [18],+44%
same,APPROX. NET LOG10 CHANGE IN TUMOR BURDEN AT END OF Rx,P388/BCNU leukemia; [18],0
same,MEDIAN DAY OF DEATH,P388/BCNU leukemia; [18],13.0
same,50-DAY SURV/TOTAL,P388/BCNU leukemia; [19],0/6
same,% ILS,P388/BCNU leukemia; [19],+77%
same,APPROX. NET LOG10 CHANGE IN TUMOR BURDEN AT END OF Rx,P388/BCNU leukemia; [19],−2.3
same,MEDIAN DAY OF DEATH,P388/BCNU leukemia; [19],16.0
same,50-DAY SURV/TOTAL,P388/BCNU leukemia; [20],0/6
same,APPROX. NET LOG10 CHANGE IN TUMOR BURDEN AT END OF Rx,P388/BCNU leukemia; [20],−4.1
same,Toxicity / lethality level at the dosage (LD),P388/BCNU leukemia; [20],LD17
same,MEDIAN DAY OF DEATH,P388/BCNU leukemia; [20],21.0
same,more active than DM-PEN against P388/BCNU (difference in log cell kill),P388/BCNU leukemia; [12],1.5 log cell kill
same,more active than PEN against P388/BCNU (difference in log cell kill),P388/BCNU leukemia; [13],3.5 log cell kill
same,activity (in words),HT29 human colon tumor; s.c.-implanted HT29 human colon tumor,moderate to modest activity
same,T-C,HT29 human colon tumor; [21],5.8 days
same,Tumor-Free-Surv/Total,HT29 human colon tumor; [21],0/5
same,activity (in words),CAKI-1 human renal tumor; s.c.-implanted CAKI-1 human renal tumor,moderate to modest activity
same,T-C,CAKI-1 human renal tumor; [22],8.4 days
same,Tumor-Free-Surv/Total,CAKI-1 human renal tumor; [22],0/5
same,T-C,OVCAR-5 ovarian tumor,4.0 days
same,Tumor-Free-Surv/Total,OVCAR-5 ovarian tumor,0/5
same,activity (in words),[6]; s.c.-implanted ZR-75-1 human mammary tumor,moderate to modest activity
same,Tumor-Free-Surv/Total,"[6]; IP 60 mg/kg/dose, Days 10-14",0/5
same,Tumor-Free-Surv/Total,"[6]; IP 90 mg/kg/dose, Days 8-12",0/5
same,activity (in words),U251 human CNS tumor; s.c.-implanted U251 human CNS tumor,moderate to modest activity
same,Tumor-Free-Surv/Total,"U251 human CNS tumor; sc U251, IP 90 mg/kg/dose, Days 19-23",0/5
same,Tumor-Free-Surv/Total,"human MX-1 mammary tumor [7]; IP 60 mg/kg/dose (LD20), Days 15-19",3/5
same,Tumor-Free-Surv/Total,"human MX-1 mammary tumor [7]; IP 60 mg/kg/dose, Days 14-18",4/5
same,Dose (mg/kg) with observed lethality level,"human MX-1 mammary tumor [7]; IP 60 mg/kg/dose, Days 15-19",60 (LD20)
same,T-C,"human MX-1 mammary tumor [7]; IP 90 mg/kg/dose, Days 12-16",>41.0 days
same,Tumor-Free-Surv/Total,"human MX-1 mammary tumor [7]; IP 90 mg/kg/dose, Days 12-16",5/5
same,Tumor-Free-Surv/Total,"human MX-1 mammary tumor [7]; oral (gavage) 135 mg/kg/dose, Days 13-17",5/5
